Data reported in US20250171495A1, “MUTLI-TARGETED SERINE PROTEASE INHIBITORS FOR TREATMENT OF CANCER AND VIRAL INFECTION” (Washington University, priority 2023, published 2025).
“And” between values parts separate entries of the source, which are not always exact repeats. Identical values can stand only once.

How the values were obtained:
Type in all cases: biochemical
[1] = target: TMPRSS2 (Homo sapiens, UniProt O15393); assay: PS-SCL / HyCoSuL substrate specificity screening, TMPRSS2; conditions: for P2 Position Substrate Activity for TMPRSS2 (percent substrate cleavage/proteolysis): residue fixed at P2 position of substrate library; for P3 Position Various Amino Acids Substrate Activity, TMPRSS2 (percent substrate cleavage/proteolysis) / P3 Position Substrate Activity for TMPRSS2 (percent substrate cleavage/proteolysis): residue fixed at P3 position of substrate library
[2] = target: T1, matriptase (Homo sapiens, UniProt Q9Y5Y6); assay: HyCoSuL P4-P2 substrate specificity screening, matriptase; conditions: for P2 Position Substrate Activity for matriptase (percent substrate cleavage/proteolysis): residue fixed at P2 position; for P3 Position Various Amino Acids Substrate Activity, matriptase (percent substrate cleavage/proteolysis): residue fixed at P3 position of substrate library; for P4 Position Various Amino Acids Substrate Activity, matriptase (percent substrate proteolysis/cleavage): residue fixed at P4 position of substrate library; for P3 Position Substrate Activity for matriptase (percent substrate cleavage/proteolysis): residue fixed at P3 position
T1 sequence (Q9Y5Y6 1-855): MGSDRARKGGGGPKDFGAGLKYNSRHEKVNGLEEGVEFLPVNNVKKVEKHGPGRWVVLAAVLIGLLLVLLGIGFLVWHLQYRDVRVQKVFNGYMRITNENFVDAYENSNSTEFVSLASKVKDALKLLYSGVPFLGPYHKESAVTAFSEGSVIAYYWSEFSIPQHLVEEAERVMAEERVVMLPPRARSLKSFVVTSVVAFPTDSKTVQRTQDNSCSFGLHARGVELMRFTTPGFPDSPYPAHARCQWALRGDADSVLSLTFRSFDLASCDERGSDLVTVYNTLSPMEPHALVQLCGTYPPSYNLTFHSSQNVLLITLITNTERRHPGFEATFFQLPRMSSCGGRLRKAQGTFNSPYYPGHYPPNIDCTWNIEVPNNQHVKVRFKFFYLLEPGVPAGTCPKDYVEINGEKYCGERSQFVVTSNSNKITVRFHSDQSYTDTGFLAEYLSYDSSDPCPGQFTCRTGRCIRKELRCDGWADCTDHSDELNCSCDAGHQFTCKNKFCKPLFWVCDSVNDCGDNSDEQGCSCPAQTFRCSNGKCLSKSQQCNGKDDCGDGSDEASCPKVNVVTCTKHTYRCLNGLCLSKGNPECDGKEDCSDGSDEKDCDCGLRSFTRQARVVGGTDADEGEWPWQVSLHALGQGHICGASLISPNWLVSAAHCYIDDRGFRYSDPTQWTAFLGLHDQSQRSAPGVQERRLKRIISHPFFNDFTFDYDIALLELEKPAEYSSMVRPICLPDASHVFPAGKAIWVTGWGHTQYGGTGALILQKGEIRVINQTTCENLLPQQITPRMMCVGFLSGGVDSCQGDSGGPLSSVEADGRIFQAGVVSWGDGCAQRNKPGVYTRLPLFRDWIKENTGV

[3] = target: T2, hepsin (Homo sapiens, UniProt P05981); assay: HyCoSuL P4-P2 substrate specificity screening, hepsin; conditions: for P2 Position Substrate Activity for hepsin (percent substrate cleavage/proteolysis): residue fixed at P2 position; for P3 Position Various Amino Acids Substrate Activity, hepsin (percent substrate cleavage/proteolysis): residue fixed at P3 position of substrate library; for P4 Position Various Amino Acids Substrate Activity, hepsin (percent substrate proteolysis/cleavage): residue fixed at P4 position of substrate library; for P3 Position Substrate Activity for hepsin (percent substrate cleavage/proteolysis): residue fixed at P3 position
T2 construct: purchased R&D Systems 4776-SE-010

[4] = target: T3, HGFA (Homo sapiens, UniProt Q04756); assay: HyCoSuL P4-P2 substrate specificity screening, HGFA; conditions: for P2 Position Substrate Activity for HGFA (percent substrate cleavage/proteolysis): residue fixed at P2 position; for P3 Position Various Amino Acids Substrate Activity, HGFA (percent substrate cleavage/proteolysis): residue fixed at P3 position of substrate library; for P4 Position Various Amino Acids Substrate Activity, HGFA (percent substrate proteolysis/cleavage): residue fixed at P4 position of substrate library; for P3 Position Substrate Activity for HGFA (percent substrate cleavage/proteolysis): residue fixed at P3 position
T3 sequence (Q04756 373-655): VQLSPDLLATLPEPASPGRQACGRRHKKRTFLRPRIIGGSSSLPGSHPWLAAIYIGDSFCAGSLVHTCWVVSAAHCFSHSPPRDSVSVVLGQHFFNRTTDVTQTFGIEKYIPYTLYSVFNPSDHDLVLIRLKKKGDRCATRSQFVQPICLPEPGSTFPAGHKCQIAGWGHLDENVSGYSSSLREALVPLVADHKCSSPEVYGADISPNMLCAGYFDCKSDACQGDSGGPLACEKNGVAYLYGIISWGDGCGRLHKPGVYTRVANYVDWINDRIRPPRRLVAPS

[5] = best recognized amino acid set to 100%
[6] = residue fixed at P4 position of substrate library
[7] = P1-Arg HyCoSuL, 100 μM, best recognized amino acid set to 100%
[8] = residue fixed at P4 position, P1-Arg HyCoSuL, 100 μM, best recognized amino acid set to 100%

Sequence of TMPRSS2 (O15393 whole entry): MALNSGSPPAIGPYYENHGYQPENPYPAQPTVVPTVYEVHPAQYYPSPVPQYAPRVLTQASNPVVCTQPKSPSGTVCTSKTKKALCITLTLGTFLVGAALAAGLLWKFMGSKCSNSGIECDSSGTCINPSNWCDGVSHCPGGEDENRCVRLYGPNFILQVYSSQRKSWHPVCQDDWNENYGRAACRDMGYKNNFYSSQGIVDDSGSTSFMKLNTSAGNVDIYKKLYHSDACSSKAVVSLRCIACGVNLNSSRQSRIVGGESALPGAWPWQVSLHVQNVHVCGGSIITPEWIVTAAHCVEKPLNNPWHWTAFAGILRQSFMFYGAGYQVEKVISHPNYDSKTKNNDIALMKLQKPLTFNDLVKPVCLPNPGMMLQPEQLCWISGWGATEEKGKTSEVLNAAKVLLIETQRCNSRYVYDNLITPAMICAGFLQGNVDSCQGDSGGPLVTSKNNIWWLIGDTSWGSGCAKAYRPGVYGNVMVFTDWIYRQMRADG
T2 sequence (P05981 163-417 limits assumed): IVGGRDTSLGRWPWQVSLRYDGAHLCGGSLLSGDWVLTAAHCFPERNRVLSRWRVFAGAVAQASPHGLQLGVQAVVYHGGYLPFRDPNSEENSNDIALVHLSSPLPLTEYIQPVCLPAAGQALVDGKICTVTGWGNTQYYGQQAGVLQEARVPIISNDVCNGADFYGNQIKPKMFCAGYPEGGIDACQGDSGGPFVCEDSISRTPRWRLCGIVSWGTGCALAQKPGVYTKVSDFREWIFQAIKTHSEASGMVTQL
T2 sequence (P05981 1-162 partner limits assumed): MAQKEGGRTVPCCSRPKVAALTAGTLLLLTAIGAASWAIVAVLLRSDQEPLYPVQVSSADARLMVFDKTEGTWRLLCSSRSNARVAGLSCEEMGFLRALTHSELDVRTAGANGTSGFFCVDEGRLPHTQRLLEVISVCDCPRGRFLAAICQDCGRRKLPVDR

| Compound | P2 Position Substrate Activity for TMPRSS2 (percent substrate cleavage/proteolysis) [1, 5] [%] | P3 Position Various Amino Acids Substrate Activity, TMPRSS2 (percent substrate cleavage/proteolysis) [1] [%] | P4 Position Various Amino Acids Substrate Activity, TMPRSS2 (percent substrate proteolysis/cleavage) [1, 6] [%] | P2 Position Substrate Activity for matriptase (percent substrate cleavage/proteolysis) [2, 7] [%] | P3 Position Various Amino Acids Substrate Activity, matriptase (percent substrate cleavage/proteolysis) [2] [%] | P4 Position Various Amino Acids Substrate Activity, matriptase (percent substrate proteolysis/cleavage) [2] [%] | P2 Position Substrate Activity for hepsin (percent substrate cleavage/proteolysis) [3, 7] [%] | P3 Position Various Amino Acids Substrate Activity, hepsin (percent substrate cleavage/proteolysis) [3] [%] | P4 Position Various Amino Acids Substrate Activity, hepsin (percent substrate proteolysis/cleavage) [3] [%] | P2 Position Substrate Activity for HGFA (percent substrate cleavage/proteolysis) [4, 7] [%] | P3 Position Various Amino Acids Substrate Activity, HGFA (percent substrate cleavage/proteolysis) [4] [%] | P4 Position Various Amino Acids Substrate Activity, HGFA (percent substrate proteolysis/cleavage) [4] [%] | P3 Position Substrate Activity for TMPRSS2 (percent substrate cleavage/proteolysis) [1, 5] [%] | P4 Position Substrate Activity for TMPRSS2 (percent substrate cleavage/proteolysis) ([1]; residue fixed at P4 position of substrate library, best recognized amino acid set to 100%) [%] | P3 Position Substrate Activity for matriptase (percent substrate cleavage/proteolysis) [2, 7] | P4 Position Substrate Activity for matriptase (percent substrate cleavage/proteolysis) [2, 8] [%] | P3 Position Substrate Activity for hepsin (percent substrate cleavage/proteolysis) [3, 7] [%] | P4 Position Substrate Activity for hepsin (percent substrate cleavage/proteolysis) [3, 8] [%] | P3 Position Substrate Activity for HGFA (percent substrate cleavage/proteolysis) [4, 7] [%] | P4 Position Substrate Activity for HGFA (percent substrate cleavage/proteolysis) [4, 8] [%] |
| --- | --- | --- | --- | --- | --- | --- | --- | --- | --- | --- | --- | --- | --- | --- | --- | --- | --- | --- | --- | --- |
| L-Leu | 5.90 | 18.81 | 30.24 | 12 | 22 | 17 | 100.00 | 19.51 | 33.10 | 100.00 | 13.71 | 10.18 | – | – | – | – | – | – | – | – |
| L-Nva | 13.88 | 38.62 | 54.45 | 11 | 25 | 30 | 58.40 | 25.85 | 41.99 | 39.80 | 17.60 | 11.78 | – | – | – | – | – | – | – | – |
| L-Orn | 0.00 | – | – | 4 | 74 | 82 | 78.48 | – | – | 0.00 | – | – | 22.76 | 12.33 | 73.75% and 62.39% | 82.42 | 79.70 | 84.52 | 54.04 | 20.23 |
| D-Trp | 0.00 | – | 22.02 | 0 | 5 | 5 | 0.00 | – | 1.48 | 0.00 | – | 7.65 | 31.94 | – | 76.43% | – | 24.90 | – | 87.59 | – |
| D-Asp | 0.00 | 20.28 | 18.22 | 0 | 0 | 1 | 0.00 | 17.18 | 1.98 | 0.00 | 5.37 | 2.25 | – | – | – | – | – | – | – | – |
| D-Phe | 0.00 | 3.80 | 24.14 | 0 | 5 | 6 | 0.00 | 24.92 | 13.15 | 0.00 | 15.22 | 8.13 | – | – | – | – | – | – | – | – |
| Cn1cc(C[C@H](N)C(=O)O)c2ccccc21 [L-Trp(Me)] | 32.33 | 21.50 | 16.80 | 1 | 7 | 6 | 7.81 | 0.00 | 0.00 | 1.12 | 18.14 | 2.49 | – | – | – | – | – | – | – | – |
| D-Ser | 0.00 | 0.00 | 31.72 | 0 | 2 | 10 | 11.55 | 54.84 | 21.84 | 0.00 | 10.86 | 7.94 | – | – | – | – | – | – | – | – |
| L-Met | 8.64 | 45.55 | 38.95 | 5 | 41 | – | – | – | – | – | – | – | – | – | – | – | – | – | – | – |
| NC1(C(=O)O)CCCC1 [AC5C] | 0.00 | 0.00 | 17.02 | – | – | – | – | – | – | – | – | – | – | – | – | – | – | – | – | – |
